Laboratory results as given in ChEMBL document CHEMBL4130415, “Discovery of new MD2-targeted anti-inflammatory compounds for the treatment of sepsis and acute lung injury” (Eur J Med Chem, 2017).
Calls of active or inactive are those of the source. The calls are words filed in the database; no cut-off is given here.

Assays:
[1] = system: Peritoneal macrophage; experiment: Antiinflammatory activity in ICR mouse primary peritoneal macrophages assessed as inhibition of LPS-induced TNF-alpha production at 10 uM pretreated for 2 hrs followed by LPS challenge measured after 22 hrs by ELISA relative to control; assay type: functional
[2] = system: Peritoneal macrophage; experiment: Antiinflammatory activity in ICR mouse primary peritoneal macrophages assessed as inhibition of LPS-induced IL-6 production at 10 uM pretreated for 2 hrs followed by LPS challenge measured after 22 hrs by ELISA relative to control; assay type: functional
[3] = system: Peritoneal macrophage; experiment: Antiinflammatory activity in ICR mouse primary peritoneal macrophages assessed as inhibition of LPS-induced TNF-alpha production pretreated for 2 hrs followed by LPS challenge measured after 22 hrs by ELISA; assay type: functional, cell-based
[4] = system: Peritoneal macrophage; experiment: Antiinflammatory activity in ICR mouse primary peritoneal macrophages assessed as inhibition of LPS-induced IL-6 production pretreated for 2 hrs followed by LPS challenge measured after 22 hrs hrs by ELISA; assay type: functional, cell-based
[5] = system: Peritoneal macrophage; experiment: Antiinflammatory activity in ICR mouse primary peritoneal macrophages assessed as inhibition of Pam3CK-induced TNF-alpha production at 10 uM pretreated for 2 hrs followed by Pam3CK challenge measured after 12 hrs by ELISA; assay type: functional, cell-based
[6] = system: Mus musculus; experiment: Antiinflammatory activity in LPS-induced C57BL/6 mouse assessed as mouse survival at 10 mg/kg, iv pretreated for 15 mins followed by LPS challenge measured after 7 days; assay type: functional, organism-based
[7] = system: Mus musculus; experiment: Antiinflammatory activity in C57BL/6 mouse assessed as reduction in LPS-induced total protein level in bronchoalveolar lavage fluid at 10 mg/kg, iv pretreated for 15 mins followed by LPS challenge measured after 6 hrs; assay type: functional, organism-based
[8] = system: Mus musculus; experiment: Antiinflammatory activity in C57BL/6 mouse assessed as reduction in LPS-induced total cell numbers in bronchoalveolar lavage fluid at 10 mg/kg, iv pretreated for 15 mins followed by LPS challenge measured after 6 hrs by flow cytometric analysis; assay type: functional, organism-based
[9] = system: Mus musculus; experiment: Antiinflammatory activity in C57BL/6 mouse assessed as reduction in LPS-induced wet to dry lung edema ratio at 10 mg/kg, iv pretreated for 15 mins followed by LPS challenge measured after 6 hrs; assay type: functional, organism-based
[10] = system: Mus musculus; experiment: Antiinflammatory activity in C57BL/6 mouse assessed as reduction in LPS-induced TNF-alpha mRNA level in bronchoalveolar lavage fluid at 10 mg/kg, iv pretreated for 15 mins followed by LPS challenge measured after 6 hrs by qPCR analysis; assay type: functional, organism-based
[11] = system: Mus musculus; experiment: Antiinflammatory activity in C57BL/6 mouse assessed as reduction in LPS-induced IL-6 mRNA level in bronchoalveolar lavage fluid at 10 mg/kg, iv pretreated for 15 mins followed by LPS challenge measured after 6 hrs by qPCR analysis; assay type: functional, organism-based
[12] = system: Mus musculus; experiment: Antiinflammatory activity in C57BL/6 mouse assessed as reduction in LPS-induced IL-1beta mRNA level in bronchoalveolar lavage fluid at 10 mg/kg, iv pretreated for 15 mins followed by LPS challenge measured after 6 hrs by qPCR analysis; assay type: functional, organism-based
[13] = system: Mus musculus; experiment: Antiinflammatory activity in C57BL/6 mouse assessed as reduction in LPS-induced inflammatory cell infiltration in lung at 10 mg/kg, iv pretreated for 15 mins followed by LPS challenge measured after 6 hrs by hematoxylin and eosin staining-based light microscopic analysis; assay type: functional, organism-based
[14] = system: Mus musculus; experiment: Antiinflammatory activity in C57BL/6 mouse assessed as reduction in LPS-induced interalveolar septal thickening in lung at 10 mg/kg, iv pretreated for 15 mins followed by LPS challenge measured after 6 hrs by hematoxylin and eosin staining-based light microscopic analysis; assay type: functional, organism-based
[15] = system: Mus musculus; experiment: Antiinflammatory activity in C57BL/6 mouse assessed as reduction in LPS-induced interstitial edema in lung at 10 mg/kg, iv pretreated for 15 mins followed by LPS challenge measured after 6 hrs by hematoxylin and eosin staining-based light microscopic analysis; assay type: functional, organism-based
[16] = system: Mus musculus; experiment: Antiinflammatory activity in LPS-induced C57BL/6 mouse assessed as increase in immunoreactivity to CD68 in lung at 10 mg/kg, iv pretreated for 15 mins followed by LPS challenge measured after 6 hrs by immunohistochemical analysis; assay type: functional, organism-based

Compound	inhibition [1]	inhibition [2]	IC50 [3] [µM]	inhibition [3]	IC50 [4] [µM]	inhibition [4]	inhibition [5]	further results
COc1ccc(/C=C2\CCC/C(=C\c3cccc(OC)c3OC)C2=O)c(F)c1	inactive	inactive	–	–	–	–	–	–
COc1cccc(/C=C/C(=O)/C=C/c2ccc(O)c(Br)c2)c1OC	–	–	2.96	Dose-dependent effect	3.62	Dose-dependent effect	inactive	Activity [6]: Active
COc1cc(OC)c(/C=C/C(=O)/C=C/c2ccc(OC)c(OC)c2)c(OC)c1	inactive	inactive	–	–	–	–	–	–
COc1ccccc1/C=C/C(=O)/C=C/c1ccccc1Br	–	–	4.73	Dose-dependent effect	4.18	Dose-dependent effect	inactive	inhibition at 10 µM [1]: 97.6%; inhibition at 10 µM [2]: 99.6%; Activity [6]: Active; Activity [7]: Active; Activity [8]: Active; Activity [9]: Active; Activity [10]: Active; Activity [11]: Active; Activity [12]: Active; Activity [13]: Active; Activity [14]: Active; Activity [15]: Active; Activity [16]: Active
COc1cc(O)c(CC=C(C)C)c(O)c1C(=O)/C=C/c1ccc(O)cc1	inactive	inactive	–	–	–	–	–	–
COc1cc(OC)c(/C=C/C(=O)/C=C/c2cccc(OC)c2OC)c(OC)c1	inactive	inactive	–	–	–	–	–	–
COc1ccccc1/C=C/C(=O)/C=C/c1ccc(O)c(Br)c1	–	–	3.71	Dose-dependent effect	4.13	Dose-dependent effect	inactive	–
